Measurements from patent US20220233550A1, “PARP INHIBITOR PELLET PREPARATION AND PREPARATION PROCESS THEREFOR” (BEIGENE, LTD., priority 2019, published 2022).

What was measured:
[1] = system: PARP; details: compared with Olaparib and other PARP inhibitors (such as Veliparib); cited from earlier work
[2] = rodents; cited from earlier work
[3] = Fluidity, judged from electron microscope images; format: physicochemical; details: electron microscope image, FIG. 1 / FIG. 2
Text: FIG. 1 of the description is an electron microscope image of the drug substance Pamiparib, and since the drug substance BGB290 contains crystal water, is very easily agglomerated, and has a poor fluidity, which is not conducive to capsule filling, thereby affecting the industrialized mass production of a formulation. In addition, FIG. 2 of the description is an electron microscope image of the pellets of Example 1. It can be seen from the image that the pellets are round in shape, can be evenly spread under the field of view of an electron microscope, and has a good fluidity. It is sufficient to fulfil the filling of the capsule.

[4] = sesquihydrate; cited from earlier work
[5] = cited from earlier work
[6] = system: PARP-1/2; details: cited from earlier work
[7] = system: BRCA variant in vitro xenograft model; details: vs Olaparib; cited from earlier work
[8] = system: CYP; details: cited from earlier work
[9] = system: cell lines with BRCA1/2 mutations or other HR defects; details: cited from earlier work

SMILES | DNA capture activity [1] | tolerance [2] | treatment window [2] | fluidity [3] | chemical stability [4] | brain permeability [5] | PARP1/2 selectivity ([6]; compared with Olaparib and other PARP inhibitors (such as Veliparib)) | activity relative to Olaparib [7] | CYP inhibitory activity [8] | selectivity for PARP-1/2 ([6]; free compound of WO 2013/097225A1) | inhibition of proliferation [9]
C[C@]12CCCN1CC1=NNC(=O)c3cc(F)cc4[nH]c2c1c34 [Pamiparib, (R)-2-fluoro-10a-methyl-7,8,9,10,10a,11-hexahydro-5,6,7a,11-tetraazacyclohepta[def]cyclopenta[a]fluoren-4(5H)-one sesquihydrate] | stronger DNA capture activity | good tolerance | about 10 folds | poor fluidity | excellent chemical stability | significant brain permeability | better PARP1/2 selectivity | about 16 times | no CYP inhibitory activity |  | 
C[C@]12CCCN1CC1=NNC(=O)c3cc(F)cc4[nH]c2c1c34 [drawing 1, (R)-2-fluoro-10a-methyl-7,8,9,10,10a,11-hexahydro-5,6,7a,11-tetraazacyclohepta[def]cyclopenta[a]fluoren-4(5H)-one] |  |  |  |  |  |  |  |  |  | high selectivity for PARP-1/2 | can effectively inhibit the proliferation
